Assay results reported in patent US9493474B2, “Inhibitors of the renal outer medullary potassium channel” (Merck Sharp & Dohme Corp., priority 2011, dated 2016).

Experiments:
[1] = molecular target: hROMK (hKir1.1) (Homo sapiens (Human), UniProt P48048); test: Thallium Flux Assay; format: cell-based; conditions: HEK293 cells stably expressing hROMK (hKir1.1); FLIPR-Tetra, 30 min compound incubation
Description: (§1) Several assays may be used to measure functional inhibition of the ROMK channel by compounds of the instant invention. One assay that can be used is an electrophysiology assay that measures the electrical current that is generated as potassium permeates through the channel. Another ROMK functional assay makes use of the ability of thallium to permeate through open ROMK channels and increase the fluorescence of a dye previously loaded into the cells. Under control conditions, cells loaded with dye and exposed to thallium-containing medium display a time-dependent increase in fluorescence, the rate of which depends on number of functional channels. When cells are incubated in the presence of a channel inhibitor, the increase in fluorescence is attenuated in a concentration-dependent manner, and IC50 values of inhibition by compounds can be accurately determined. This assay has been established with cell lines expressing either human, or rat ROMK channels, and operates in 384-well format.
HEK293 cells stably expressing hROMK (hKir1.1) were grown at 37° C. in a 10% CO2 humidified incubator in complete growth media: Dulbecco's Modified Eagle Medium supplemented with non-essential amino acids, Penicillin/Streptomycin/Glutamine, G418 and FBS. At >80% confluency, the media was aspirated from the flask and the sample was rinsed with 10 ml Calcium/Magnesium-free PBS. […] To dislodge the cell, the side of the flask was gently banged with a hand. The cells were triturated completely and then transferred to 25 ml complete media. The sample was then centrifuged at 1,500 rpm for 6 minutes, followed by resuspension in complete growth media and then cell concentration was determined. […] Under ideal growth conditions and appropriate tissue culture practices, this cell line is stable for 40-45 passages.
• FluxOR™ Reagent (Component A) • FluxOR™ Assay Buffer (Component B)—10× Concentrate • PowerLoad™ Concentrate (Component C)—100× Concentrate • Probenecid (Component D)—Lyophilized sample is kept at −20° C. Water soluble, 100× after solubilization in 1 ml water. […] Store at 4° C. • Thallium sulfate (Tl2SO4) Concentrate (Component G)—50 mM in water. […] Can be stored at room temperature • Stimulant Buffer (prepared at 5× final concentration in 1× FluxOR™ Chloride-Free Buffer): 7.5 mM Thallium sulfate and 0.75 mM Potassium sulfate (to give a final assay concentration of 3 mM Thallium/0.3 mM Potassium). Store at 4° C. when not in use. If kept sterile, this solution is good for months. Assay Protocol—
The ROMK channel functional thallium flux assay is performed in 384 wells, using the FLIPR-Tetra instrument. HEK-hKir1.1 cells are seeded in Poly-D-Lysine microplates and kept in a 37° C.-10% CO2 incubator overnight. On the day of the experiment, the growth media is replaced with the FluxOR™ reagent loading buffer and incubated, protected from light, at ambient temperature (23-25° C.) for 90 min. The loading buffer is replaced with assay buffer±test compound followed by 30 min incubation at ambient temperature, where the Thallium/Potassium stimulant is added to the microplate.
• 1. Seed HEK-hKir1.1 cells (50 μl at 20,000 cells/well) in 384-well PDL coated Microplates • 2. Allow cells to adhere overnight in humidified 37° C./10% CO2 incubator • 3. Completely remove cell growth media from microplate and replace with 25 μl loading buffer • 4. Incubate Microplate at room temperature, protected form light, for 90 min • 5. Remove loading buffer and replace with 25 μl 1× Assay Buffer±test compound. • 6. Incubate microplate at room temperature, protected form light, for 30 min • 7. […] Excitation=400 nm, Emission=460 & 580 nm. Collect data for 10 min. Data Calculation—
The fluorescence intensity of wells containing 3 μM of a standard control ROMK inhibitor of the present invention is used to define the ROMK-sensitive component of thallium flux. Fluorescence in the presence of test compounds is normalized to control values to provide % fluorescence change.

[2] = molecular target: Kir1.1 (ROMK1) (Homo sapiens (Human), UniProt P48048); test: Electrophysiology Assay (whole cell voltage clamp, IonWorks Quattro); format: cell-based; conditions: Chinese hamster ovary cells stably expressing Kir1.1; block at voltage step to 0 mV, 6 minutes compound incubation; read-out: EP Assay IC50
Description: as §1
Block of Kir1.1 (ROMK1) currents was examined by whole cell voltage clamp (Hamill et. al. Pfluegers Archives 391:85-100 (1981)) using the IonWorks® Quattro automated electrophysiology platform (Molecular Devices, Sunnyvale, Calif.). Chinese hamster ovary cells stably expressing Kir1.1 channels were maintained in T-75 flasks in cell culture media in a humidified 10% CO2 incubator at 37° C. Prior to an experiment, Kir1.1 expression was induced by overnight incubation with 1 mM sodium butyrate. On the day of the experiment, cells were dissociated with 2.5 ml of Versene™ (Invitrogen 15040-066) for approximately 6 minutes at 37° C. and suspended in 10 ml of bath solution containing (in mM): 150 NaCl, 10 KCl, 2.7 CaCl2, 0.5 MgCl2, 5 HEPES, pH 7.4. After centrifugation, the cell pellet was resuspended in approximately 4.0 ml of bath solution and placed in the IonWorks® instrument. The intracellular solution consisted of (in mM): 80 K gluconate, 40 KCl, 20 KF, 3.2 MgCl2, 3 EGTA, 5 Hepes, pH 7.4. Electrical access to the cytoplasm was achieved by perforation in 0.13 mg/ml amphotericin B for 4 minutes. Amphotericin B (Sigma A-4888) was prepared as a 40 mg/ml solution in DMSO.
Voltage protocols and current recordings were performed using the IonWorks® HT software/hardware system. Currents were sampled at 1 kHz. No correction for liquid junction potentials was used. The test pulse, consisting of a 100 ms step to 0 mV from a holding potential of −70 mV, followed by a 100 ms voltage ramp from −70 mV to +70 mV, was applied before and after a 6 minutes compound incubation period. Test compounds were prepared by diluting DMSO stock solutions into the bath solution at 3× the final concentration and placed in the instrument in 96-well polypropylene plates. Current amplitudes were measured using the IonWorks® software. To assess compound potency, the fractional block during the voltage step to 0 mV was calculated in Microsoft® Excel (Microsoft, Redmond, Calif.), and dose-response curves were fitted with Igor Pro 4.0 (WaveMetrics, Lake Oswego, Oreg.).

Kir1.1 (ROMK1), sequence (P48048 whole entry, species assumed): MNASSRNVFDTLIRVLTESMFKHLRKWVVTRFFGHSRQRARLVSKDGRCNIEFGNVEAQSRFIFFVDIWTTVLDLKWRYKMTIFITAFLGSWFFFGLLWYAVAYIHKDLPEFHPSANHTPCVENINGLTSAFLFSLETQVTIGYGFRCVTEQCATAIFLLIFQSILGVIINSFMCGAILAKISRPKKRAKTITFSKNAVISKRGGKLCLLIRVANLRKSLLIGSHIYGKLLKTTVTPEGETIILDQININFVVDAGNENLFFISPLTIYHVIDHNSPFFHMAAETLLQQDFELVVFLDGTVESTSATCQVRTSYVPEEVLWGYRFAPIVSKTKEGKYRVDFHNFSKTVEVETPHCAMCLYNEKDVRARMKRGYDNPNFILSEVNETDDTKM
hROMK (hKir1.1), sequence (P48048 whole entry): as the sequence (P48048 whole entry, species assumed) above

Structure (SMILES)	IC50 [1] [nM]	IC50 [2] [nM]
Cc1cc(S(=O)(=O)N2CCCC23CCN(C[C@H](O)c2ccc4c(c2C)COC4=O)C3)ccc1-n1cnnn1 (single isomer, unassigned) [Example 18A]	138	79
Cc1c([C@@H](O)CN2CCC3(CCCN(C(=O)c4ccc(-n5cnnn5)nc4)C3)C2)ccc2c1COC2=O (stereo partly drawn) [Example 14, 5-((1R)-2-(7-(6-(1H-tetrazol-1-yl)nicotinoyl)-2,7-diazaspiro[4.5]decan-2-yl)-1-hydroxyethyl)-4-methylisobenzofuran-1(3H)-one]	241	108
Cc1c([C@@H](O)CN2CCC3(CCCN3C[C@H](O)c3ccc4c(c3C)COC4=O)C2)ccc2c1COC2=O (single isomer, unassigned) [Example 10B]	76	184
Cc1c([C@@H](O)CN2CCC3CN(S(=O)(=O)c4ccc(C#N)cc4)CC32)ccc2c1COC2=O (single isomer, unassigned) [Example 8B]	662	–
Cc1c([C@@H](O)CN2C(C)CC3CN(CC(O)c4ccc(C#N)cn4)CC32)ccc2c1COC2=O (single isomer, unassigned) [Example 11B]	91	53
Cc1c([C@@H](O)CN2CC3CN(CC(O)c4ccc(C#N)cn4)C3C2)ccc2c1COC2=O (single isomer, unassigned) [Example 23]	540	1800
Cc1c([C@@H](O)CN2CCC3CN(CC(O)c4ccc(C#N)cn4)CC32)ccc2c1COC2=O (single isomer, unassigned) [Example 7B]	566	2400
Cc1c([C@@H](O)CN2CC3CCN(C(=O)c4ccc(-n5cnnn5)nc4)CC3C2)ccc2c1COC2=O (stereo partly drawn) [Example 15, 5-((1R)-2-(5-(6-(1H-Tetrazol-1-yl)nicotinoyl)-1H-pyrrolo[3,4-c]_yridine-2(3H,3aH,4H,5H,6H,7H,7aH)-yl)-1-hydroxyethyl)-4-methylisobenzofuran-1(3H)-one]	103	200
N#Cc1ccc(S(=O)(=O)N2CCC3CN(C[C@H](O)c4ccc5c(c4)COC5=O)CC32)cc1 (stereo partly drawn) [Example 9, 4-(5-((R)-2-Hydroxy-2-(1-oxo-1,3-dihydroisobenzofuran-5-yl)ethyl)hexahydropyrrolo[3,4-b]pyrrol-1(2H)-ylsulfonyl)benzonitrile]	234	–
Cc1c([C@@H](O)CN2CCC3CN(CC(O)c4ccc(C#N)cn4)CC32)ccc2c1COC2=O (single isomer, unassigned) [Example 7A]	152	47
Cc1c([C@@H](O)CN2CC3CN(CC(O)c4ccc(C#N)cn4)C3C2)ccc2c1COC2=O (single isomer, unassigned) [Example 22]	916	–
Cc1c([C@@H](O)CN2CC3CCN(C(=O)c4ccc(C#N)cn4)CC3C2)ccc2c1COC2=O (stereo partly drawn) [Example 3, 6-({2-[(2R)-2-Hydroxy-2-(4-methyl-1-oxo-1,3-dihydro-2-benzofuran-5-yl)ethyl]octahydro-5H-pyrrolo[3,4-c]pyridine-5-yl}carbonyl)pyridine-3-carbonitrile]	865	–
Cc1c([C@@H](O)CN2CCC3CN(S(=O)(=O)c4ccc(-n5cnnn5)cc4)CC32)ccc2c1COC2=O (stereo partly drawn) [Example 20, 5-((1R)-2-(5-(4-(1H-Tetrazol-1-yl)phenylsulfonyl)hexahydropyrrolo[3,4-b]pyrrol-1(2H)-yl)-1-hydroxyethyl)-4-methylisobenzofuran-1(3H)-one]	1050	–
Cc1c([C@@H](O)CN2CCCC3(CCN(C[C@H](O)c4ccc5c(c4C)COC5=O)C3)C2)ccc2c1COC2=O (stereo partly drawn) [Example 1, 5,5′-{2,7-Diazaspiro[4.5]decane-2,7-diylbis[(1R)-1-hydroxyethane-2,1-diyl]}bis(4-methyl-2-benzofuran-1(3H)-one)]	274	117
Cc1c([C@@H](O)CN2CCCC3(CCCN(C[C@H](O)c4ccc5c(c4C)COC5=O)C3)C2)ccc2c1COC2=O [Example 6, 5,5′-{2,8-Diazaspiro[5.5]undecane-2,8-diylbis[(1R)-1-hydroxyethane-2,1-diyl]}bis(4-methyl-2-benzofuran-1(3H)-one)]	359	201
Cc1c([C@@H](O)CN2CCC3CN(C(=O)c4ccc(-n5cnnn5)cn4)CC32)ccc2c1COC2=O (stereo partly drawn) [Example 16, 5-((1R)-2-(5-(5-(1H-tetrazol-1-yl)picolinoyl)hexahydropyrrolo[3,4-b]pyrrol-1(2H)-yl)-1-hydroxyethyl)-4-methylisobenzofuran-1(3H)-one]	602	850
Cc1c([C@@H](O)CN2CCCC3(CCCN3C[C@H](O)c3ccc4c(c3C)COC4=O)C2)ccc2c1COC2=O (stereo partly drawn) [Example 5, 5,5′-{1,7-Diazaspiro[4.5]decane-1,7-diylbis[(1R)-1-hydroxyethane-2,1-diyl]}bis(4-methyl-2-benzofuran-1(3H)-one)]	737	348
Cc1cc(S(=O)(=O)N2CCCC23CCN(C[C@H](O)c2ccc4c(c2C)COC4=O)C3)ccc1-n1cnnn1 (single isomer, unassigned) [Example 18B]	294	125
Cc1c([C@@H](O)CN2C(C)CC3CN(CC(O)c4ccc(C#N)cn4)CC32)ccc2c1COC2=O (single isomer, unassigned) [Example 11A]	93	–
